Where two headings read alike, the source gives them in different places.
How the values were obtained:
[1] = biological target: recombinant human PIM2 (Homo sapiens, UniProt Q9P1W9); assay: PIM-2 kinase assay; assay type: biochemical
Protocol: Test compounds dissolved and diluted in DMSO (2 μl) were added to a reaction mixture comprising 10 μl of 5× Reaction Buffer (40 mM MOPS pH 7.0, 5 mM EDTA), 10 μl of recombinant human PIM2 solution (4 ng PIM-2 dissolved in dilution buffer (20 mM MOPS pH 7.0; EDTA 1 mM; 5% Glycerol; 0.01% Brij 35; […]; […] 2-mercaptoethanol; 1 mg/ml BSA)) and 8 ul of water. Reactions were initiated by the addition of 10 ul of ATP Solution ([…] (15 mM MgCl2; 75 uM ATP) 1% ([γ-33P]ATP: Stock 1 mCi/100 μl; 3000 Ci/mmol (Perkin Elmer)) and 10 ul of substrate peptide solution (RSRSSYPAGT, dissolved in water at a concentration of 1 mM), Reactions were maintained for 10 min at 30° C. The reactions were quenched with 100 ul of 0.75% Phosphoric acid, then transferred to and filtered through a Phosphocellulose filter plate (Millipore, MSPH-N6B-50). After washing each well 4 times with 0.75% Phosphoric acid, scintillation fluid (20 uL) was added to each well and the residual radioactivity was measured using a Wallac luminescence counter.

[2] = biological target: T1, recombinant human CK2 (Homo sapiens, UniProt P68400); assay: cell-free CK2 assay; assay type: biochemical
T1 construct: purchased Upstate
T1 sequence (P68400 whole entry): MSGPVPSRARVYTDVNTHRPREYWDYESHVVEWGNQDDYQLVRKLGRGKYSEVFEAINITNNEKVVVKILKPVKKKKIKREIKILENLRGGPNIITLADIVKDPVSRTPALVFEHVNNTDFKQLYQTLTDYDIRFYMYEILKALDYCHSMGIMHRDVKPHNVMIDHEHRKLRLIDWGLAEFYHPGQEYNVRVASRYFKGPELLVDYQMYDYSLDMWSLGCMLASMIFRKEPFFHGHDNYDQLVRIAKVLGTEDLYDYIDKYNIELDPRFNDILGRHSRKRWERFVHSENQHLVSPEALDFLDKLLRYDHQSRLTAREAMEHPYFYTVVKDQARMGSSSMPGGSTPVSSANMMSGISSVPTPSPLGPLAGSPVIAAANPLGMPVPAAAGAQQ
T1 sequence (P67870 whole entry partner): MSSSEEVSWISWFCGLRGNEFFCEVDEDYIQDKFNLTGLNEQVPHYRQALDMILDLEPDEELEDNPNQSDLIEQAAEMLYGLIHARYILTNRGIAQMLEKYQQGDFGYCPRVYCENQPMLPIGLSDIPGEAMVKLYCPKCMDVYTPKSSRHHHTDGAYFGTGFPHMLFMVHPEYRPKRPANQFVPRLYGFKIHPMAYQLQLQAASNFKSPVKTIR
Protocol: Modulatory activity of compounds described herein was assessed in vitro in cell-free CK2 assays by the following method.
Test compounds in aqueous solution were added at a volume of 10 microliters, to a reaction mixture comprising 10 microliters Assay Dilution Buffer (ADB; 20 mM MOPS, pH 7.2, 25 mM beta-glycerolphosphate, 5 mM EGTA, 1 mM sodium orthovanadate and 1 mM dithiothreitol), 10 microliters of substrate peptide (RRRDDDSDDD, dissolved in ADB at a concentration of 1 mM), 10 microliters of recombinant human CK2 (25 ng dissolved in ADB; Upstate). Reactions were initiated by the addition of 10 microliters of ATP Solution (90% 75 mM MgCl2, 75 micromolar ATP dissolved in ADB; 10% [γ-^33P]ATP (stock 1 mCi/100 μl; 3000 Ci/mmol (Perkin Elmer) and maintained for 10 minutes at 30 degrees C. The reactions were quenched with 100 microliters of 0.75% phosphoric acid, then transferred to and filtered through a phosphocellulose filter plate (Millipore). After washing each well 5 times with 0.75% phosphoric acid, the plate was dried under vacuum for 5 min and, following the addition of 15 ul of scintilation fluid to each well, the residual radioactivity was measured using a Wallac luminescence counter.

[3] = tested on: K-562 human chronic myelogenous leukemia (CML) cells; assay: Alamar Blue cell proliferation assay, K-562; assay type: cell-based; settings: K562, Table 4
Protocol: (§1) A representative cell-proliferation assay protocol using Alamar Blue dye (stored at 4° C., use 20 ul per well) is described hereafter.
(§2) a. Split and trypsinize cells.
(§3) b. Count cells using hemocytometer.
(§4) c. Plate 4,000-5,000 cells per well in 100 μl of medium and seed into a 96-well plate according to the following plate layout. Add cell culture medium only to wells B10 to B12. Wells B1 to B9 have cells but no compound added.
(§5) d. Add 100 μl of 2× drug dilution to each well in a concentration shown in the plate layout above. At the same time, add 100 μl of media into the control wells (wells B10 to B12). Total volume is 200 μl/well.
(§6) e. Incubate four (4) days at 37° C., 5% CO2 in a humidified incubator.
(§7) f. Add 20 μl Alamar Blue reagent to each well.
(§8) g. Incubate for four (4) hours at 37° C., 5% CO2 in a humidified incubator.
(§9) h. Record fluorescence at an excitation wavelength of 544 nm and emission wavelength of 590 nm using a microplate reader.
(§10) In the assays, cells are cultured with a test compound for approximately four days, the dye is then added to the cells and fluorescence of […] dye is detected after approximately four hours. Different types of cells can be utilized in the assays (e.g., HCT-116 human colorectal carcinoma cells, PC-3 human prostatic cancer cells, MDA-MB231 human breast cancer cells, K-562 human chronic myelogenous leukemia (CML) cells, MiaPaca human pancreatic carcinoma cells, MV-4 human acute myeloid leukemia cells, and BxPC3 human pancreatic adenocarcinoma cells).

[4] = tested on: MV-4-11; assay: Alamar Blue cell proliferation assay, MV-4-11; assay type: cell-based; settings: Homo sapiens, MV4-11; Table 4
Protocol: as §1, §2, §3, §4, §5, §6, §7, §8, §9, §10

[5] = biological target: recombinant PIM-1 (Homo sapiens, UniProt P11309); assay: PIM-1 kinase assay; assay type: biochemical; settings: for inhibition at 0.5 µM: 500 nM compound, read-out: PIM1: % inh 500 nM
recombinant PIM-1, sequence (P11309 whole entry): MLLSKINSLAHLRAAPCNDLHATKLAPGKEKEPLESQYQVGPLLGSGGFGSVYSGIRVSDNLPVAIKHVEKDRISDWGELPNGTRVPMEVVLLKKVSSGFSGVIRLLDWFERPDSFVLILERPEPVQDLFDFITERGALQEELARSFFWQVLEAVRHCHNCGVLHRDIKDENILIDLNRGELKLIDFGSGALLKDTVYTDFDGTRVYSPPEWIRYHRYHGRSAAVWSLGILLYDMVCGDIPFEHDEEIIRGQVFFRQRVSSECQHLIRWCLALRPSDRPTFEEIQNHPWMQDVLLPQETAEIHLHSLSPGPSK
Protocol: The following procedure was used to assay the PIM-1 kinase activity of compounds of the invention. Other methods for assaying PIM-1 and other PIM kinases, as well as methods to assay for activity against various kinases known in the art.
In a final reaction volume of 50 ul, recombinant PIM-1 (1 ng) was incubated with 12 mM MOPS pH 7.0, 0.4 mM EDTA, glycerol 1%, brij 35 0.002%, 2-mercaptoethanol 0.02%, BSA 0.2 mg/ml, 100 uM KKRNRTLTK, 10 mM MgAcetate, 15 uM ATP, [γ-^33P-ATP] (specific activity approx. 500 cpm/pmol), DMSO 4% and test inhibitor compound at the required concentration. The reaction was initiated by the addition of the Magnesium ATP mixture. After 40 min incubation at 23° C., the reactions were quenched by the addition of 100 ul 0.75% Phosphoric acid, and the labeled peptide collected by filtration through a phosphocellulose filter plate. The plate was washed 4 times with 0.075% phosphoric acid (100 ul per well) and then, after the addition of scintillation fluid (20 ul per well), the counts were measured by a scintillation counter.

[6] = 15 μM ATP, read-out: PIM1: IC50 (15 μM ATP)

recombinant human PIM2, sequence (Q9P1W9 whole entry): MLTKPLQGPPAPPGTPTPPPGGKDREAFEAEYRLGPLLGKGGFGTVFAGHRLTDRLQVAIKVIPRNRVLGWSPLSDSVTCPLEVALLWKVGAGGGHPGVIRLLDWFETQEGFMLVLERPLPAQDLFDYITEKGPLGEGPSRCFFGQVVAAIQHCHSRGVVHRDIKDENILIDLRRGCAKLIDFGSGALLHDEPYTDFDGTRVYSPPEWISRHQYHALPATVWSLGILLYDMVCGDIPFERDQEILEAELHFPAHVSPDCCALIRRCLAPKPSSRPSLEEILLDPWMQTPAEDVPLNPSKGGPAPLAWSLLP

IC50 [1] | IC50 [2] | inhibition at 0.5 µM [5] | further results | Structure (SMILES)
> 2.5 µM | > 5 µM |  |  | CCOC(=O)c1cccc2c1[nH]c(=O)c1nccn12
 |  | 73.2% | IC50 [3]: > 10 µM; IC50 [4]: > 10 µM; IC50 [5, 6]: 0.365 µM | Fc1ccc(Nc2nc3cc(-c4nnn[nH]4)ccc3n3cccc23)cc1
 |  | -13.9% |  | CN(C)CCNC(=O)c1ccc2c(c1)[nH]c(=O)c1cccn12
 |  | -27.1% |  | CC(C)(C)OC(=O)N1CCN(C(=O)c2ccc3c(c2)[nH]c(=O)c2cccn23)CC1
 |  | 35% |  | O=C(O)c1ccc2c(c1)nc(NCCO)c1cccn12
< 5 µM | < 0.1 µM |  | IC50 ([5]; Table 5, read-out: PIM1 IC50): < 0.1 µM | COc1ccc(Sc2nc3c(-c4nnc[nH]4)cccc3n3cccc23)cc1
> 2.5 µM | > 5 µM |  | IC50 ([5]; Table 5, read-out: PIM1 IC50): > 2.5 µM | NC(=O)c1cccc2c1[nH]c(=O)c1cccn12
 |  | -28.6% |  | N#Cc1ccc2c(c1)[nH]c(=O)c1cccn12
> 2.5 µM | > 5 µM |  | IC50 ([5]; Table 5, read-out: PIM1 IC50): > 2.5 µM | CN(C)CCNc1nc2c(-c3nnc[nH]3)cccc2n2cccc12
< 1 µM | < 1 µM |  | IC50 ([5]; Table 5, read-out: PIM1 IC50): < 0.1 µM | c1cc(-c2nnc[nH]2)c2nc(NC3CC3)c3cccn3c2c1
 |  | -31.9% |  | CN1CCN(C(=O)c2ccc3c(c2)[nH]c(=O)c2cccn23)CC1
< 1 µM | < 5 µM |  | IC50 ([5]; Table 5, read-out: PIM1 IC50): < 0.1 µM | FC(F)(F)CCNc1nc2c(-c3nnc[nH]3)cccc2n2cccc12
 |  | 69.5% | IC50 [3]: > 10 µM; IC50 [4]: > 10 µM; IC50 [5, 6]: 0.33 µM | CN1CCCC(Nc2nc3cc(C(=O)O)ccc3n3cccc23)C1 (centres unmarked)
< 1 µM | < 1 µM |  | IC50 ([5]; Table 5, read-out: PIM1 IC50): < 1 µM | O=C(O)c1cccc2c1nc(Nc1ccccc1F)c1cccn12
< 0.1 µM | < 0.1 µM |  |  | NC(=O)c1cccc2c1nc(Nc1ccccc1F)c1cncn12
 |  | 41.8% |  | O=c1[nH]c2cc(-c3nnn[nH]3)ccc2n2cccc12
 |  | -46.9% |  | CC(C)(C)OC(=O)N1CCCN(C(=O)c2ccc3c(c2)[nH]c(=O)c2cccn23)CC1
 |  | 14% |  | CCOC(=O)c1ccc2c(c1)[nH]c(=O)c1cccn12
 |  | 81.5% | IC50 [3]: > 10 µM; IC50 [4]: > 10 µM; IC50 [5, 6]: 0.097 µM | CCN1CCCC1CNc1nc2cc(-c3nnn[nH]3)ccc2n2cccc12 (centres unmarked)
 |  | 15% |  | COc1cccc(Nc2nc3cc(-c4nnn[nH]4)ccc3n3cccc23)c1
> 2.5 µM | < 1 µM |  |  | O=C(O)c1cccc2c1nc(Nc1ccccc1F)c1cncn12
 |  | 19.4% |  | COc1ccc(Nc2nc3cc(-c4nnn[nH]4)ccc3n3cccc23)cc1Cl
 |  | -11.8% |  | O=C(c1ccc2c(c1)[nH]c(=O)c1cccn12)N1CCNCC1
 |  | 72.5% | IC50 [3]: > 10 µM; IC50 [4]: > 10 µM; IC50 [5, 6]: 0.504 µM | O=C(O)c1ccc2c(c1)nc(NCCN1CCCC1)c1cccn12
 |  | 63.5% | IC50 [3]: > 10 µM; IC50 [4]: > 10 µM; IC50 [5, 6]: 0.486 µM | CN(C)CCNc1nc2cc(-c3nnn[nH]3)ccc2n2cccc12
 |  | 76.5% | IC50 [3]: > 10 µM; IC50 [4]: 0.688 µM; IC50 [5, 6]: 0.173 µM | CN(C)CCNc1nc2cc(C(=O)O)ccc2n2cccc12

— patent US20100298302A1, “NOVEL PROTEIN KINASE MODULATORS” (priority 2009, published 2010)
